Marks after values point to notes of the source that are not given here.
Assays:
subjects with RRMS [1] = assay: ALLEGRO sub-study: WM, GM and thalamic volume analysis (3D T1-weighted MRI); format: in vivo, human; settings: for Grey matter fraction, % change, median (range) / Thalamic fraction, % change, LS mean (SE) / White matter fraction, % change, median (range): laquinimod 0.6 mg/day oral; for Grey matter fraction, treatment effect (Hodges-Lehmann median estimate for treatment difference) / Thalamic fraction, treatment effect (LS mean difference) / White matter fraction, treatment effect (Hodges-Lehmann median estimate for treatment difference): laquinimod vs placebo; for Treatment effect of laquinimod on thalamic fraction: patients with thalamic lesions at baseline
Experimental: WM, GM, and thalamic volumes were derived from 3D T1-weighted images at baseline and at months 12 and 24. Patients with baseline and at least one valid scheduled post-baseline MRI were included in the analysis. Patients with thalamic lesions at baseline and a valid post-baseline MRI were included in the thalamic lesion analysis. Longitudinal WM and GM volume changes were calculated as the percentage difference from baseline to months 12 and 24. A separate calculation was performed between months 12 and 24. […] The ANCOVA (SAS® PROC GLM) model used treatment group, baseline value of the outcome, number of GdE lesions at baseline and country/geographic region, as covariates. Additionally, analyses of percentage changes in WM volume were also adjusted for GM volume at baseline due to the imbalance that was found between treatment groups at baseline. The Hodges-Lehmann (HL) large sample median estimator associated with the ranked values analysis approach was used to construct two-sided 95% confidence limits for the difference in treatment effects. Percent thalamic volume changes from baseline to months 12 and 24 followed normal distribution and thus were analysed using a parametric MMRM (SAS® PROC MIXED) model corrected for baseline thalamic volume, number of baseline GdE lesions, country/geographic region, visit, treatment and visit by treatment interaction. The least square (LS) mean difference was used to estimate treatment effect. As noted for the % change in WM and GM volumes, percent thalamic volume change from month 12 to month 24 was analyzed using a separate analysis of covariance (ANCOVA) (SAS® PROC GLM) model, since these values […] from the MMRM model. The ANCOVA model used treatment group, baseline thalamic volume, number of baseline GdE lesions and country/geographic region, as covariates. GM at baseline was used as an additional covariate to account for between treatment group imbalance in this measure at baseline.

subjects with RRMS [2] = assay: ALLEGRO sub-study: evolution of GdE and new T2 lesions into permanent black holes (PBH), frequent MRI group; format: in vivo, human; settings: for Number of PBH from GdE lesions, adjusted mean (SE) / PBH from GdE lesions, RR (risk ratio) laquinimod vs placebo / Number of PBH from active lesions, adjusted mean (SE) / Number of PBH from new T2 lesions, mean (SE) / PBH from active lesions, RR (risk ratio) laquinimod vs placebo / PBH from new T2 lesions, RR (risk ratio) laquinimod vs placebo: 0.6 mg
Excerpt: A subset of patients in ALLEGRO comprised a “frequent MRI” group for PBH analysis; these patients had MRIs taken at months 3, 6, 12 and 24. Patients in the frequent MRI group with active lesions at baseline or during the study were included in the PBH analysis. A negative binomial regression analysis was used to estimate the mean number of PBH at months 12 and 24 that evolved from GdE and new T2 lesions detected at various time points in the study in the “frequent MRI” subgroup.

RRMS patients = settings: cited from earlier work
[3] = PBH at Month 12 from lesions at Baseline
[4] = PBH at Month 12 from lesions at Month 3
[5] = PBH at Month 12 from lesions at Months 3 and 6
[6] = PBH at Month 24 from All lesions
[7] = PBH at Month 24 from lesions at Baseline
[8] = PBH at Month 24 from lesions at Month 3
[9] = PBH at Month 24 from lesions at Months 3, 6, and 12

In the case of `CCN(C(=O)c1c(O)c2c(Cl)cccc2n(C)c1=O)c1ccccc1` [Laquinimod], the “Grey matter fraction, % change, median (range)” value (shortened to “Grey matter fraction, % change”) (subjects with RRMS [1]; baseline to month 12) was −0.3 (−19.4 to 22.4) %, the “Thalamic fraction, % change, LS mean (SE)” value (subjects with RRMS [1]; baseline to month 12) was −0.6 (0.12) % and the “White matter fraction, % change, median (range)” value (“White matter fraction, % change” below) (subjects with RRMS [1]; baseline to month 12) was 0.0 (−24.7 to 11.9) %. The “Grey matter fraction, treatment effect (Hodges-Lehmann median estimate for treatment difference)” value (subjects with RRMS [1]; baseline to month 12) was 0.502* %, the “Thalamic fraction, treatment effect (LS mean difference)” value (subjects with RRMS [1]; baseline to month 12) was 0.408^† % and the “White matter fraction, treatment effect (Hodges-Lehmann median estimate for treatment difference)” value (subjects with RRMS [1]; baseline to month 12) was 0.394* %. For the same compound, the “Grey matter fraction, % change” value (subjects with RRMS [1]; baseline to month 24) was −0.9 (−17.4 to 21.2) %, the “Thalamic fraction, % change, LS mean (SE)” value (subjects with RRMS [1]; baseline to month 24) was −1.3 (0.15) % and the “White matter fraction, % change” value (subjects with RRMS [1]; baseline to month 24) was −0.3 (−27.3 to 19.2) %. The “Grey matter fraction, treatment effect (Hodges-Lehmann median estimate for treatment difference)” value (subjects with RRMS [1]; baseline to month 24) was 0.372* %, the “Thalamic fraction, treatment effect (LS mean difference)” value (subjects with RRMS [1]; baseline to month 24) was 0.60^† % and the “White matter fraction, treatment effect (Hodges-Lehmann median estimate for treatment difference)” value (subjects with RRMS [1]; baseline to month 24) was 0.327* %. For the same compound, the “Grey matter fraction, % change” value (subjects with RRMS [1]; month 12 to month 24) was −0.7 (−11.5 to 16.6) %, the “Thalamic fraction, % change, LS mean (SE)” value (subjects with RRMS [1]; month 12 to month 24) was −0.7 (0.13) % and the “White matter fraction, % change” value (subjects with RRMS [1]; month 12 to month 24) was −0.2 (−15.3 to 15.0) %. For the same compound, the “Grey matter fraction, treatment effect (Hodges-Lehmann median estimate for treatment difference)” value (subjects with RRMS [1]; month 12 to month 24) was −0.078* %, the “Thalamic fraction, treatment effect (LS mean difference)” value (subjects with RRMS [1]; month 12 to month 24) was 0.233^† % and the “White matter fraction, treatment effect (Hodges-Lehmann median estimate for treatment difference)” value (subjects with RRMS [1]; month 12 to month 24) was −0.013* %. The “Treatment effect of laquinimod on thalamic fraction” value (subjects with RRMS [1]; 12 months (p=0.018)) was “statistically significant”, the “Treatment effect of laquinimod on thalamic fraction” value (subjects with RRMS [1]; 24 months (p<0.0001)) was “statistically significant” and the “Treatment effect of laquinimod on thalamic fraction change vs placebo” value (subjects with RRMS [1]; patients without T2 thalamic lesions at baseline, month 12 or 24) was “not significantly different”. For the same compound, the “Number of PBH from GdE lesions, adjusted mean (SE)” value (subjects with RRMS [2]; [3]) was 0.5 (0.16) [26], the “PBH from GdE lesions, RR (risk ratio) laquinimod vs placebo” value (subjects with RRMS [2]; [3]) was 0.53 and the “Number of PBH from GdE lesions, adjusted mean (SE)” value (subjects with RRMS [2]; [4]) was 0.6 (0.25) [14]. The “Number of PBH from active lesions, adjusted mean (SE)” value (subjects with RRMS [2]; [4]) was 0.41 (0.14) [29], the “Number of PBH from new T2 lesions, mean (SE)” value (subjects with RRMS [2]; [4]) was 0.40 (0.15) [28] and the “PBH from GdE lesions, RR (risk ratio) laquinimod vs placebo” value (subjects with RRMS [2]; [4]) was 0.58. For the same compound, the “PBH from active lesions, RR (risk ratio) laquinimod vs placebo” value (subjects with RRMS [2]; [4]) was 0.44, the “PBH from new T2 lesions, RR (risk ratio) laquinimod vs placebo” value (subjects with RRMS [2]; [4]) was 0.52 and the “Number of PBH from GdE lesions, adjusted mean (SE)” value (subjects with RRMS [2]; [5]) was 0.6 (0.18) [25]. The “Number of PBH from active lesions, adjusted mean (SE)” value (subjects with RRMS [2]; [5]) was 0.59 (0.15) [41], the “Number of PBH from new T2 lesions, mean (SE)” value (subjects with RRMS [2]; [5]) was 0.57 (0.16) [40] and the “PBH from GdE lesions, RR (risk ratio) laquinimod vs placebo” value (subjects with RRMS [2]; [5]) was 0.45. For the same compound, the “PBH from active lesions, RR (risk ratio) laquinimod vs placebo” value (subjects with RRMS [2]; [5]) was 0.42, the “PBH from new T2 lesions, RR (risk ratio) laquinimod vs placebo” value (subjects with RRMS [2]; [5]) was 0.48 and the “Number of PBH from GdE lesions, adjusted mean (SE)” value (subjects with RRMS [2]; [6]) was 1.0 (0.20) [41]. The “Number of PBH from active lesions, adjusted mean (SE)” value (subjects with RRMS [2]; [6]) was 1.20 (0.19) [55], the “Number of PBH from new T2 lesions, mean (SE)” value (subjects with RRMS [2]; [6]) was 0.87 (0.17) [51] and the “PBH from GdE lesions, RR (risk ratio) laquinimod vs placebo” value (subjects with RRMS [2]; [6]) was 0.45. For the same compound, the “PBH from active lesions, RR (risk ratio) laquinimod vs placebo” value (subjects with RRMS [2]; [6]) was 0.51, the “PBH from new T2 lesions, RR (risk ratio) laquinimod vs placebo” value (subjects with RRMS [2]; [6]) was 0.52 and the “Number of PBH from GdE lesions, adjusted mean (SE)” value (subjects with RRMS [2]; [7]) was 0.6 (0.17) [26]. For the same compound, the “PBH from GdE lesions, RR (risk ratio) laquinimod vs placebo” value (subjects with RRMS [2]; [7]) was 0.65, the “Number of PBH from GdE lesions, adjusted mean (SE)” value (subjects with RRMS [2]; [8]) was 0.6 (0.24) [14] and the “Number of PBH from active lesions, adjusted mean (SE)” value (subjects with RRMS [2]; [8]) was 0.47 (0.14) [29]. For the same compound, the “Number of PBH from new T2 lesions, mean (SE)” value (subjects with RRMS [2]; [8]) was 0.43 (0.14) [28], the “PBH from GdE lesions, RR (risk ratio) laquinimod vs placebo” value (subjects with RRMS [2]; [8]) was 0.55 and the “PBH from active lesions, RR (risk ratio) laquinimod vs placebo” value (subjects with RRMS [2]; [8]) was 0.45. For the same compound, the “PBH from new T2 lesions, RR (risk ratio) laquinimod vs placebo” value (subjects with RRMS [2]; [8]) was 0.50, the “Number of PBH from GdE lesions, adjusted mean (SE)” value (subjects with RRMS [2]; [9]) was 0.7 (0.19) [32] and the “Number of PBH from active lesions, adjusted mean (SE)” value (subjects with RRMS [2]; [9]) was 0.95 (0.18) [52]. For the same compound, the “Number of PBH from new T2 lesions, mean (SE)” value (subjects with RRMS [2]; [9]) was 0.87 (0.17) [51], the “PBH from GdE lesions, RR (risk ratio) laquinimod vs placebo” value (subjects with RRMS [2]; [9]) was 0.44 and the “PBH from active lesions, RR (risk ratio) laquinimod vs placebo” value (subjects with RRMS [2]; [9]) was 0.50. The “PBH from new T2 lesions, RR (risk ratio) laquinimod vs placebo” value (subjects with RRMS [2]; [9]) was 0.52, the “Number of PBH evolved from GdE lesions present at baseline, placebo vs laquinimod” value (subjects with RRMS [2]; at 12 and 24 months) was “no difference” and the “Disability and brain atrophy progression” value (RRMS patients; 0.6 mg/day, RRMS patients) was “slowed disability and brain atrophy progression”. The “Rate of whole brain atrophy compared with placebo” value (RRMS patients; ALLEGRO and BRAVO) was “decreased the rate of whole brain atrophy” and the “Safety and tolerability profile” value (RRMS patients; two phase III trials) was “favorable safety and tolerability profile”.

Source: patent US20160296511A1, “LAQUINIMOD FOR REDUCING THALAMIC DAMAGE IN MULTIPLE SCLEROSIS” (Teva Pharmaceutical Industries, Ltd., priority 2012, published 2016)
